Results published in US20220274980A1, “PHARMACOLOGICAL INHIBITORS OF THE ENL YEATS DOMAIN” (priority 2019, published 2022).
pIC50: −log10 of the molar value.

How the values were obtained:
[1] = biological target: T1, ENL YEATS domain (association with H3K27cr) (Homo sapiens, UniProt Q03111); test: biochemical; settings: ENL (YEATS)-H3K27cr HTRF (IC50, μM)
T1 sequence (Q03111 1-148): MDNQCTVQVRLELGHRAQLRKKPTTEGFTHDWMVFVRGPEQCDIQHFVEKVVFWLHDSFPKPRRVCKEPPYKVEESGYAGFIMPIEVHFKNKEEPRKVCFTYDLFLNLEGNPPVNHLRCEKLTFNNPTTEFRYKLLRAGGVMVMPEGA
Protocol: (§1) Protein Production. Double stranded DNA fragments encoding the protein sequence of ENL YEATS(1-148) were synthesized (IDT DNA) for assembly-based cloning into a modified expression vector backbone derived from pET21a (Novagen). The protein was fused to a StrepII-SUMO and 6×His tag on the amino and carboxy terminus, respectively. Transformed BL21(DE3) cells (New England Biolabs) were grown at 37° C. in 2×YT growth medium to an OD600 of 0.6. Protein expression was induced at 25° C. with the addition of isopropyl-β-D-thiogalactopyranoside (IPTG) to a final concentration of 0.4 mM. The culture was harvested by centrifugation following a 20-hour incubation and subsequently purified by immobilized metal affinity chromatography. Cells were resuspended 50 mM Tris-HCl pH 8.0, 300 mM NaCl, 10% glycerol, 10 mM imidazole, 1 mM DTT containing Complete EDTA-free protease inhibitor (Roche) and lysed by two passes through a MicroFluidizer at 10,000 psi. The lysate was clarified by centrifugation at 16,000 rpm for 30 minutes at 4° C. The supernatant was passed over NiNTA agarose (QIAGEN) and the protein was eluted in 50 mM Tris-HCl pH 8.0, 300 mM NaCl, 10% glycerol, 250 mM imidazole, 1 mM DTT. Fractions containing the ENL YEATS(1-148) fusion protein were buffer exchanged into 100 mM Tris-HCl pH 8.0, 150 mM NaCl, 1 mM EDTA, 1 mM DTT using PD10 desalting columns (GE Life Sciences). Ulp1 protease was added to cleave the StrepII-SUMO fusion and the reaction mixture was incubated overnight at 4° C. The cleavage reaction mixture was loaded onto a StrepTrap column (GE Life Sciences) and ENL YEATS(1-148) was recovered in the flow through. BRD4 BD1 was purchased from Cayman (Cat. No. 11720).
(§2) Homogenous time-resolved FRET (HTRF) histone-binding assays. Both HTRF assays were performed by combining recombinant protein and synthetic histone peptide in assay buffer (25 mM HEPES pH 7, 20 mM NaCl, 0.2% Pluronic F-127, and 0.05% BSA) with 1 nM LanthaScreen Eu-anti-His Tag antibody (ThermoFisher, Cat. No, PV5597) and 8.9 nM SureLight allophycocyanin-streptavidin (Perkin Elmer, APC-SA, Cat. No. CR130-100). ENL YEATS was used at 5 nM and BRD4 BD1 was used at 10 nM. ENL assays were performed with H3(13-32)K27cr (13.3 and 100 nM, respectively), custom synthesized at ABclonal (N-terminal biotin, C-terminal amide); BRD4 BD1 assay was performed with 13.3 nM tetra-acetylated H4 (BioVision, Cat. No. 7144-01). Once all reagents were combined (with or without peptide), 10 μL was dispensed per well into black 384-well low-volume plates (Corning, Cat. No. 3821) and drug was added by pin tool transfer (Biomek FX). Assays were incubated for 2 or more hours before measurement of HTRF signal on a PHERAstar plate reader (BMG Labtech; simultaneous dual emission; excitation=337 nm, emission 1=665 nm, emission 2=620 nm). HTRF signal (ratio of emission 1 to emission 2) from vehicle-treated wells (maximum signal) and no-peptide-control wells (minimum signal) were used to calculate percent inhibition for drug-treated wells.

BRD4 bromodomain 1 (BD1) = biological target: T2, BRD4 bromodomain 1 (BD1) (Homo sapiens, UniProt O60885); test: BRD4 (BD1)-H4 tetra-acetylated HTRF histone-binding assay
T2 construct: Selectivity against BRD4 bromodomain 1 (BD1), measured by HTRF; His; purchased Cayman 11720
Protocol: as §1, §2

ENL(YEATS)-HiBiT = biological target: T3, ENL(YEATS)-HiBiT (Homo sapiens, UniProt Q03111); test: cell-based
T3 sequence (Q03111 1-138 limits assumed): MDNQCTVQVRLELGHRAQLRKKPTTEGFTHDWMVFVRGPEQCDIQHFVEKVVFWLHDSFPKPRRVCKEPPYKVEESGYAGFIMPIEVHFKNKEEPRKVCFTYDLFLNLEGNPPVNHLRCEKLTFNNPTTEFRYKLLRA

| Compound | IC50 ([1]; Table 1) [µM] | IC50 ([1]; Table 2) [µM] | pIC50 (BRD4 bromodomain 1 (BD1); Table 1) | pIC50 (BRD4 bromodomain 1 (BD1); Table 2) | pIC50 (ENL(YEATS)-HiBiT) |
| --- | --- | --- | --- | --- | --- |
| CC(C)NC(=O)c1ccc2nc(-c3cccc(NS(=O)(=O)NCCC(N)=O)c3)cn2c1 [Compound 56] | 0.52 | 0.52 | < 4.30 | < 4.30 | – |
| CC(C)NC(=O)c1ccc2nc(-c3cccc(NS(=O)(=O)NCCO)c3)cn2c1 [Compound 57] | 0.43 | 0.43 | < 4.30 | < 4.30 | – |
| CC(C)NC(=O)c1ccc2nc(-c3cccc(NS(=O)(=O)NCCc4ccc(N)cc4)c3)cn2c1 [Compound 58] | 0.32 | 0.32 | < 4.30 | < 4.30 | – |
| CC(C)NC(=O)c1ccc2nc(-c3cccc(NS(=O)(=O)NCCCCCC#N)c3)cn2c1 [Compound 59] | 0.55 | 0.55 | < 4.30 | < 4.30 | – |
| CC(C)NC(=O)c1ccc2nc(-c3cccc(NS(=O)(=O)NCCCC(=O)O)c3)cn2c1 [Compound 60] | 0.69 | 0.69 | < 4.30 | < 4.30 | – |
| CC(C)NC(=O)c1ccc2nc(-c3cccc(NS(=O)(=O)NCCCCCCC(=O)O)c3)cn2c1 [Compound 61] | 0.36 | 0.36 | < 4.30 | < 4.30 | – |
| CC(C)NC(=O)c1ccc2nc(-c3cccc(NS(=O)(=O)NCCCCO)c3)cn2c1 [Compound 62] | 0.3 | 0.3 | < 4.30 | < 4.30 | – |
| CC(C)NC(=O)c1ccc2nc(-c3cccc(NS(=O)(=O)NCCCCCCCC(=O)O)c3)cn2c1 [Compound 63] | 0.46 | 0.46 | < 4.30 | < 4.30 | – |
| CC(C)NC(=O)c1ccc2nc(-c3cccc(NS(=O)(=O)NCCCN4CCCC4)c3)cn2c1 [Compound 64] | 0.34 | 0.34 | < 4.30 | < 4.30 | – |
| CC(C)NC(=O)c1ccc2nc(-c3cccc(NS(=O)(=O)NC[C@H]4CC[C@H](C(=O)O)CC4)c3)cn2c1 [Compound 65] | 0.32 | 0.32 | < 4.30 | < 4.30 | – |
| CC(C)NC(=O)c1ccc2nc(-c3cccc(NS(=O)(=O)NCCC(=O)O)c3)cn2c1 [Compound 66] | 0.63 | 0.63 | < 4.30 | < 4.30 | – |
| CC(C)NC(=O)c1ccc2nc(-c3cccc(NS(=O)(=O)NCCCn4ccnc4)c3)cn2c1 [Compound 67] | 0.33 | 0.33 | < 4.30 | < 4.30 | – |
| CC(C)NC(=O)c1ccc2nc(-c3cccc(N=S(=O)(F)N4CCC[C@@H]4C(=O)O)c3)cn2c1 (stereo partly shown) [Compound 68] | 0.61 | 0.61 | < 4.30 | < 4.30 | – |
| O=C(NC1COC1)c1ccc2nc(-c3ccccc3)cn2c1 [Compound 70] | > 50 | > 50 | – | – | 4.56 |
| Cc1ccc(-c2cn3cc(C(=O)NC4CCC4)ccc3n2)cc1 [Compound 71] | 1.17 | 1.17 | – | – | 5.26 |
| O=C(N[C@@H]1CCc2ccccc21)c1ccc2nc(-c3ccccc3)cn2c1 [Compound 74] | 2.29 | 2.29 | – | – | 5.05 |
| O=C(NC1CC(O)C1)c1ccc2nc(-c3ccccc3)cn2c1 (stereo not shown) [Compound 76] | > 50 | > 50 | – | – | 4.45 |
| COc1ccc(-c2cn3cc(C(=O)NC4CCC4)ccc3n2)cc1 [Compound 78] | 3.27 | 3.27 | – | – | 5.10 |
| O=C(NC1CC(CO)C1)c1ccc2nc(-c3ccccc3)cn2c1 (stereo not shown) [Compound 85] | 21.3 | 21.3 | – | – | 4.59 |
| N#Cc1ccc(-c2cn3cc(C(=O)NC4CCC4)ccc3n2)cc1 [Compound 86] | 1.3 | 1.3 | – | – | 5.60 |
| CC1CCCCN1CCNS(=O)(=O)Nc1cccc(-c2cn3cc(C(=O)NC4CCC4)ccc3n2)c1 (stereo not shown) [Compound 96] | 0.163 | 0.163 | – | – | 5.11 |
| O=C(NC1CCC1)c1ccc2nc(-c3cccc(NS(=O)(=O)NCCN4CCC(F)(F)CC4)c3)cn2c1 [Compound 97] | 0.206 | 0.206 | – | – | 5.55 |
| O=C(NC1CCC1)c1ccc2nc(-c3cccc(NS(=O)(=O)NCC(=O)N4CCCCC4)c3)cn2c1 [Compound 98] | 0.101 | 0.101 | – | – | 4.92 |
| O=C(NC1CCC1)c1ccc2nc(-c3cccc(NS(=O)(=O)NCCN4CCC(O)CC4)c3)cn2c1 [Compound 99] | 0.05 | 0.05 | – | – | 6.13 |
| O=C(O)COC1CCN(CCC(=O)Nc2cccc(-c3cn4cc(C(=O)NC5CCC5)ccc4n3)c2)CC1 [Compound 111] | 0.243 | 0.243 | – | – | 5.21 |
| O=C(NC1CCC1O)c1ccc2nc(-c3ccccc3)cn2c1 (stereo not shown) [Compound 116] | 36 | 36 | – | – | 4.46 |
| C#CC1CC(NC(=O)c2ccc3nc(-c4ccccc4)cn3c2)C1 (stereo not shown) [Compound 117] | 10 | 10 | – | – | 4.72 |
| O=C(NC1CC2(CC2)C1)c1ccc2nc(-c3ccccc3)cn2c1 [Compound 118] | 0.723 | 0.723 | – | – | 5.15 |
| COC[C@@H]1CC[C@H]1NC(=O)c1ccc2nc(-c3ccccc3)cn2c1 [Compound 121] | 13 | 13 | – | – | 4.64 |
| C#C[C@H]1C[C@@H](NC(=O)c2ccc3nc(-c4ccccc4)cn3c2)C1 [Compound 122] | 6 | 6 | – | – | 4.72 |
